Results: patent US20250243171A1, “QUINAZOLINE COMPOUNDS FOR TREATMENT OF DISEASE” (Arthrosi Therapeutics, Inc., priority 2021, published 2025)

How the values were obtained:
Test in all cases: EC50 assay: Ba/F3 stable cell proliferation (CCK-8, 72 h)
Format in all cases: cell-based
Ba/F3 stable cells [1] = target: T1, Ba/F3 stable cells (Homo sapiens, UniProt P00533, INS763FQEA, cells depend on it); conditions: Ba/F3-EGFR A763-Y764insFQEA cells
T1 construct: EC50 Ba/F3-EGFR A763-Y764insFQEA; other: Ba/F3-EGFR A763-Y764insFQEA cells, 72 h, CCK-8
Experimental: (§1) 4,000 Ba/F3 stable cells/90 μL/well were plated onto 96-well cell culture plate (Grenier, Cat.No. 655180) and incubated at 37° C. with a humidified atmosphere of 5% CO2 for 2 h. Then the cells were treated with 10 μL compounds at serial titration. The final DMSO concentration is 0.1%. The cells treated with 0.1% DMSO (Vetec, Cat.No.V900090) as a positive control (Max), and medium with 0.1% DMSO was as a negative control (Min). Incubated the cells at 37° C. for 72 h. 10 μL the cell proliferation reagent CCK-8 (Dojindo, Cat.No. CK04 1000T) was added into each well and incubated the plate at 37° C. for 4 hours, the GD value was measured by SPECTRAmax plus (Molecular Devices) at 450 nm. Data processing with Graphpad 7.0.

Ba/F3 stable cells [2] = target: T2, Ba/F3 stable cells (Homo sapiens, UniProt P04626, DUP772-775, cells depend on it); conditions: Ba/F3-HER2 A775-G776insYVMA cells
T2 construct: EC50 Ba/F3-HER2 A775-G776insYVMA; other: Ba/F3-HER2 A775-G776insYVMA cells, 72 h, CCK-8
Experimental: as §1

Ba/F3 stable cells [3] = target: T3, Ba/F3 stable cells (Homo sapiens, UniProt P00533, DUP768-770, cells depend on it); conditions: Ba/F3-EGFR D770-N771insSVD cells
T3 construct: EC50 Ba/F3-EGFR D770-N771insSVD; other: Ba/F3-EGFR D770-N771insSVD cells, 72 h, CCK-8
Experimental: as §1

Ba/F3 stable cells [4] = target: T4, Ba/F3 stable cells (Homo sapiens, UniProt P00533, T790M/L858R, cells depend on it); conditions: Ba/F3-EGFR L858R-T790M cells
T4 construct: EC50 Ba/F3-EGFR L858R-T790M; other: Ba/F3-EGFR L858R-T790M cells, 72 h, CCK-8
Experimental: as §1

Ba/F3 stable cells [5] = target: T5, Ba/F3 stable cells (Homo sapiens, UniProt P00533, DUP771-773, cells depend on it); conditions: Ba/F3-EGFR H773-V774insNPH cells
T5 construct: EC50 Ba/F3-EGFR H773-V774insNPH; other: Ba/F3-EGFR H773-V774insNPH cells, 72 h, CCK-8
Experimental: as §1

Ba/F3 stable cells [6] = target: T6, Ba/F3 stable cells (Homo sapiens, UniProt P00533, DUP767-769, cells depend on it); conditions: Ba/F3-EGFR V769-D770insASV cells
T6 construct: EC50 Ba/F3-EGFR V769-D770insASV; other: Ba/F3-EGFR V769-D770insASV cells, 72 h, CCK-8
Experimental: as §1

T1 sequence (P00533 with tags, fused parts or gaps INS763FQEA): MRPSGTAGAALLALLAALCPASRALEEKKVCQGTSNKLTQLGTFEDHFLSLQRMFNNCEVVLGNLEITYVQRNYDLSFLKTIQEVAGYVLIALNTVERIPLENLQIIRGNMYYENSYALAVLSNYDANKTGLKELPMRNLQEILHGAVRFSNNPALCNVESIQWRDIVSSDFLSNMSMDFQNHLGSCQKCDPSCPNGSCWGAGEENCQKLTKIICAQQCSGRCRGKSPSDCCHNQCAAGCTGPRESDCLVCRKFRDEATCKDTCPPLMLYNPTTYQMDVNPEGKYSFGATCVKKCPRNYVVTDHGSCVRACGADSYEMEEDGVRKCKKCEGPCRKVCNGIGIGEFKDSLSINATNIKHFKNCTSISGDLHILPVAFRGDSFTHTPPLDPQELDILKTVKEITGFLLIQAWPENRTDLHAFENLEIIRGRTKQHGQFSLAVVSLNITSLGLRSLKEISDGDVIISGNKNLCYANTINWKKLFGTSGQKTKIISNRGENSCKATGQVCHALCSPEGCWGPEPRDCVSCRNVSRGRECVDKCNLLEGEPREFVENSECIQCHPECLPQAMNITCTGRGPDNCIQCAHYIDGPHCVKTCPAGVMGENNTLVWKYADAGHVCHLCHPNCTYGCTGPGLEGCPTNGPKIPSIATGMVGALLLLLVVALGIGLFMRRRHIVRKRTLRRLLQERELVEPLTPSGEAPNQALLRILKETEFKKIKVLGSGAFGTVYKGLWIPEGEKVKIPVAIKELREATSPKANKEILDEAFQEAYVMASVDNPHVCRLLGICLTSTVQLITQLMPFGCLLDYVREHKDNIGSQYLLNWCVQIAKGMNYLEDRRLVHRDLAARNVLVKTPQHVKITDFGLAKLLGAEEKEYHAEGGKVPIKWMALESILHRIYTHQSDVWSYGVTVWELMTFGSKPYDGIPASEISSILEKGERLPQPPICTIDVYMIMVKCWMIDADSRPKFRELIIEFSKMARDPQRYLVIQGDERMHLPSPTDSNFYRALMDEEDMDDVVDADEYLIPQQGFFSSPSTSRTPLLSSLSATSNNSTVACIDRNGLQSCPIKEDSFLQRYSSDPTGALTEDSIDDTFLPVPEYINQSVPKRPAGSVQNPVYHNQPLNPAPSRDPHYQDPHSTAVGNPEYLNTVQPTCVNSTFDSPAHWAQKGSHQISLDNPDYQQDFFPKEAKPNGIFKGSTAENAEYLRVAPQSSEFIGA
T3 sequence (P00533 with tags, fused parts or gaps DUP768-770): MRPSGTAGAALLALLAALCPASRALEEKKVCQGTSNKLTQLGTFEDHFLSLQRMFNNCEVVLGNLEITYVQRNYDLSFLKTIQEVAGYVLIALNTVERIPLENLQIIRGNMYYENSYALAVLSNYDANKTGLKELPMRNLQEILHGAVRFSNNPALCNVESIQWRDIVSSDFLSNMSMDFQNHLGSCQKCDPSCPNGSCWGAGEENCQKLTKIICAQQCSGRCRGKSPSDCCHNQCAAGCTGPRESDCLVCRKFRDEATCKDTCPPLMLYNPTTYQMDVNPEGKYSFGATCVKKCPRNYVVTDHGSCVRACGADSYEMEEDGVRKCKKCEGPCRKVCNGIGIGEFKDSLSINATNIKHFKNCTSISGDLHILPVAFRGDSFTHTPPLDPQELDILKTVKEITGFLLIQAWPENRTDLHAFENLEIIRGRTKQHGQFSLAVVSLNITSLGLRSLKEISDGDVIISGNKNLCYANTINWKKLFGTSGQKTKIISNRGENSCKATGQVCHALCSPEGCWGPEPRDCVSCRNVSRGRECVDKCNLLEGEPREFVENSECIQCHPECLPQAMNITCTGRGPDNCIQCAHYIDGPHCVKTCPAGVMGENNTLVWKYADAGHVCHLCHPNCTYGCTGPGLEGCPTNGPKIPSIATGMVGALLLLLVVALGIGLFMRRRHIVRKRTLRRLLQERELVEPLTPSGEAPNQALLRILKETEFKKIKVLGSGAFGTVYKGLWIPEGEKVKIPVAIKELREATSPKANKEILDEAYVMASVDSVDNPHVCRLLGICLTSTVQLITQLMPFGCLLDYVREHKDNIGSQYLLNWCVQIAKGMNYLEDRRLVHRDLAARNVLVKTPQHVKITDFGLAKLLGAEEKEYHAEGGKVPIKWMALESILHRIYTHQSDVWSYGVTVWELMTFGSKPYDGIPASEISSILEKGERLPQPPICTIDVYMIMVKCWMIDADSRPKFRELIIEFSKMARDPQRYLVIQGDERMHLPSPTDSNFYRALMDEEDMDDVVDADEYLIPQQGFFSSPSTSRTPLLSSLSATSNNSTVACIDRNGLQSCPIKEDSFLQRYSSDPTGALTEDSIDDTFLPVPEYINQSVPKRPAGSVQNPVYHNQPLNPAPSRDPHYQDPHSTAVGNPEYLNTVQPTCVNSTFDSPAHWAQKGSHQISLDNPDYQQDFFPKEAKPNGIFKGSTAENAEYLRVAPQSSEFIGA
T5 sequence (P00533 with tags, fused parts or gaps DUP771-773): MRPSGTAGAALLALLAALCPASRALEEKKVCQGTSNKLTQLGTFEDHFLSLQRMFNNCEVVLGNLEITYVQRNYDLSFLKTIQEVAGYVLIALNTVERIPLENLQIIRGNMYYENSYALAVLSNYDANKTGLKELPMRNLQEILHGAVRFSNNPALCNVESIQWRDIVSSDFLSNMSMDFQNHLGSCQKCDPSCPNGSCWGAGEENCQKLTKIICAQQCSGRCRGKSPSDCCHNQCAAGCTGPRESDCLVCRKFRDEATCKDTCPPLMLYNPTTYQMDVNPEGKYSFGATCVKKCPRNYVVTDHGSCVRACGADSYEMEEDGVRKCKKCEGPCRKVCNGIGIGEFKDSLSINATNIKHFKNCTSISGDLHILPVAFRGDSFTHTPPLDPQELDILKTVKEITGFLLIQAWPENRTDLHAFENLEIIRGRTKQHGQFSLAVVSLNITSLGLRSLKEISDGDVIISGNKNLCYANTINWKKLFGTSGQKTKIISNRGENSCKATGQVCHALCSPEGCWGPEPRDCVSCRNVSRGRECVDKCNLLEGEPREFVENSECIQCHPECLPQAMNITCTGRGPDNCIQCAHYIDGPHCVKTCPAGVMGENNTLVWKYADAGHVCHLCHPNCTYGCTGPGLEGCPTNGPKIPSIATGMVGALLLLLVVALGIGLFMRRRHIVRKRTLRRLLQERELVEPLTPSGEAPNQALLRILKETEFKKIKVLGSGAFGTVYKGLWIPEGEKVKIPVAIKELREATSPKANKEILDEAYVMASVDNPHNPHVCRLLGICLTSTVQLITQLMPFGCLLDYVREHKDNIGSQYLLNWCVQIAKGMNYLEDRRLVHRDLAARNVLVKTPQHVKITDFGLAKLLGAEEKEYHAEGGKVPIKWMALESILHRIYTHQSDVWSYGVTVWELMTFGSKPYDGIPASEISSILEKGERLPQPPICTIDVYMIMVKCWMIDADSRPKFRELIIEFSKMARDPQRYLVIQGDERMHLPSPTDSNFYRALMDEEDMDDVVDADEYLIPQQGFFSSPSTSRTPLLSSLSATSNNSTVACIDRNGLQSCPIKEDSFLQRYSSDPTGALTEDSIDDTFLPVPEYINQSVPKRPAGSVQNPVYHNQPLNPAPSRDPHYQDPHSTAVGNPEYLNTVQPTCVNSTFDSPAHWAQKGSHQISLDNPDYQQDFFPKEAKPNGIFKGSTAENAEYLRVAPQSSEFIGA
T4 sequence (P00533 whole entry T790M/L858R): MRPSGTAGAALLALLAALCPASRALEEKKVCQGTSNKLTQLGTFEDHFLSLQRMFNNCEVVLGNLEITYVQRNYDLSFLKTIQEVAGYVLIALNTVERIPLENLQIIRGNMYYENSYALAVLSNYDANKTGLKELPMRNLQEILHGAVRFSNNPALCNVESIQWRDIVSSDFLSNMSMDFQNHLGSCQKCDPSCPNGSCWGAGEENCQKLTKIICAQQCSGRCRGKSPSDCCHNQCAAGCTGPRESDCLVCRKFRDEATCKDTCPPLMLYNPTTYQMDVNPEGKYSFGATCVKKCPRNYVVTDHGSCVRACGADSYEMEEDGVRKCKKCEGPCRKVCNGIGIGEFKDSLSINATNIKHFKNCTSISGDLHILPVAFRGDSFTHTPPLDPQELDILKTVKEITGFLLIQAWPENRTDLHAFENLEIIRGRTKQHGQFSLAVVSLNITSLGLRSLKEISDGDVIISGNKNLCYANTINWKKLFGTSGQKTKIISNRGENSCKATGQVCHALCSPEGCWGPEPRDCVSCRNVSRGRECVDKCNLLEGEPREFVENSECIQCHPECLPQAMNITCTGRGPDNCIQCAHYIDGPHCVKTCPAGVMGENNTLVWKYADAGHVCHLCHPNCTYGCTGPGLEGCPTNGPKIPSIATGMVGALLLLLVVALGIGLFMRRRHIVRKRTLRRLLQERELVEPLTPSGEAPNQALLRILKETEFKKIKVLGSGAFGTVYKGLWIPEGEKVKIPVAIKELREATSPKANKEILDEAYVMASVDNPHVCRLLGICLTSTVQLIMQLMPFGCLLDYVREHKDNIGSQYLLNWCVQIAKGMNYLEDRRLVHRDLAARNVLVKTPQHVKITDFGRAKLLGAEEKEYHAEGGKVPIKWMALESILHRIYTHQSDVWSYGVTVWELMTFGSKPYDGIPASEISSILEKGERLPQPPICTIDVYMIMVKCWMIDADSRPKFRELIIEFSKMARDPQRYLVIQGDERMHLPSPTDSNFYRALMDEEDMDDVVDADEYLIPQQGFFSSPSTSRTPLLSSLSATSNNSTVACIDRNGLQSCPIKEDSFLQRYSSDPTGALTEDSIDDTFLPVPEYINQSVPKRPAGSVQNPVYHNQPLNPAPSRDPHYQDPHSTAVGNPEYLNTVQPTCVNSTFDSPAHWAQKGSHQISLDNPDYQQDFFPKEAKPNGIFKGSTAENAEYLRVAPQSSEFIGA

Row | SMILES | EC50 (Ba/F3 stable cells [1]) | EC50 (Ba/F3 stable cells [2]) | EC50 (Ba/F3 stable cells [3]) | EC50 (Ba/F3 stable cells [4]) | EC50 (Ba/F3 stable cells [5]) | EC50 (Ba/F3 stable cells [6])
1 | C=CC(=O)N1CC(c2cc3c(Nc4ccc(Cl)c(Cl)c4F)ncnc3cc2OC)C1 [Compound 1, 1-(3-(4-((3,4-dichloro-2-fluorophenyl)amino)-7-methoxyquinazolin-6-yl)azetidin-1-yl)prop-2-en-1-one] | ≤ 200 nM | ≤ 200 nM | ≤ 200 nM | ≤ 200 nM | ≤ 200 nM | ≤ 200 nM
2 | C=CC(=O)N1CC(c2cc3c(Nc4ccc(OCc5ccccc5)c(Cl)c4F)ncnc3cc2OC)C1 [Compound 2, 1-(3-(4-((4-(benzyloxy)-3-chloro-2-fluorophenyl)amino)-7-methoxyquinazolin-6-yl)azetidin-1-yl)prop-2-en-1-one] | > 1000 nM | > 1000 nM | > 1000 nM | > 1000 nM | > 1000 nM | > 1000 nM
3 | C=CC(=O)N1CCC(c2cc3c(Nc4ccc(Cl)c(Cl)c4F)ncnc3cc2OC)C1 (centres unmarked) [Compound 3, 1-(3-(4-((3,4-dichloro-2-fluorophenyl)amino)-7-methoxyquinazolin-6-yl)pyrrolidin-1-yl)prop-2-en-1-one] | ≤ 200 nM | ≤ 200 nM | ≤ 200 nM | 200 to 1000 nM | ≤ 200 nM | ≤ 200 nM
4 | C=CC(=O)N1CC(c2ccc3ncnc(Nc4ccc(Cl)c(Cl)c4F)c3c2)C1 [Compound 8, 1-(3-(4-((3,4-dichloro-2-fluorophenyl)amino)quinazolin-6-yl)azetidin-1-yl)prop-2-en-1-one] | ≤ 200 nM | 200 to 1000 nM | 200 to 1000 nM | > 1000 nM | 200 to 1000 nM | 200 to 1000 nM
5 | C=CC(=O)N1CCC(c2ccc3ncnc(Nc4ccc(Cl)c(Cl)c4F)c3c2)CC1 [Compound 9, 1-(4-(4-((3,4-dichloro-2-fluorophenyl)amino)quinazolin-6-yl)piperidin-1-yl)prop-2-en-1-one] | ≤ 200 nM | 200 to 1000 nM | > 1000 nM | > 1000 nM | > 1000 nM | > 1000 nM
6 | C=CC(=O)N1CCC(c2cc3c(Nc4ccc(Cl)c(Cl)c4F)ncnc3cc2OC)CC1 [Compound 10, 1-(4-(4-((3,4-dichloro-2-fluorophenyl)amino)-7-methoxyquinazolin-6-yl)piperidin-1-yl)prop-2-en-1-one] | ≤ 200 nM | 200 to 1000 nM | 200 to 1000 nM | > 1000 nM | 200 to 1000 nM | ≤ 200 nM
7 | C=CC(=O)N1CC(c2cc3c(Nc4ccc(Cl)c(Cl)c4F)ncnc3cc2OCCOC)C1 [Compound 17, 1-(3-(4-((3,4-dichloro-2-fluorophenyl)amino)-7-(2-methoxyethoxy)quinazolin-6-yl)azetidin-1-yl)prop-2-en-1-one] | ≤ 200 nM | ≤ 200 nM | ≤ 200 nM | ≤ 200 nM | ≤ 200 nM | ≤ 200 nM
8 | C=CC(=O)N1CC(c2cc3c(Nc4ccc(Cl)c(Cl)c4F)ncnc3cc2OCC)C1 [Compound 18, 1-(3-(4-((3,4-dichloro-2-fluorophenyl)amino)-7-ethoxyquinazolin-6-yl)azetidin-1-yl)prop-2-en-1-one] | ≤ 200 nM | ≤ 200 nM | ≤ 200 nM | ≤ 200 nM | ≤ 200 nM | ≤ 200 nM
9 | C=CC(=O)N1CC(c2cc3c(Nc4ccc(Cl)c(Cl)c4F)ncnc3cc2OCCO)C1 [Compound 19, 1-(3-(4-((3,4-dichloro-2-fluorophenyl)amino)-7-(2-hydroxyethoxy)quinazolin-6-yl)azetidin-1-yl)prop-2-en-1-one] | ≤ 200 nM | ≤ 200 nM | ≤ 200 nM | ≤ 200 nM | ≤ 200 nM | ≤ 200 nM
10 | C=CC(=O)N1CC(c2cc3c(Nc4ccc(Cl)c(Cl)c4F)ncnc3cc2O[C@H]2CCOC2)C1 [Compound 24, (S)-1-(3-(4-((3,4-dichloro-2-fluorophenyl)amino)-7-((tetrahydrofuran-3-yl)oxy)quinazolin-6-yl)azetidin-1-yl)prop-2-en-1-one] | 200 to 1000 nM | – | – | – | – | –
11 | C=CC(=O)N1CCC(Oc2cc3c(Nc4ccc(Cl)c(Cl)c4F)ncnc3cc2OC)CC1 [Compound 133, 1-(4-((4-((3,4-dichloro-2-fluorophenyl)amino)-7-methoxyquinazolin-6-yl)oxy)piperidin-1-yl)prop-2-en-1-one] | – | ≤ 200 nM | – | – | – | –

Second part, the compound after the results:

Row | EC50 (Ba/F3 stable cells [1]) | EC50 (Ba/F3 stable cells [2]) | EC50 (Ba/F3 stable cells [3]) | EC50 (Ba/F3 stable cells [4]) | EC50 (Ba/F3 stable cells [5]) | EC50 (Ba/F3 stable cells [6]) | SMILES
12 | ≤ 200 nM | ≤ 200 nM | 200 to 1000 nM | 200 to 1000 nM | ≤ 200 nM | ≤ 200 nM | C=CC(=O)N1CC(c2cc3c(Nc4cccc5ccccc45)ncnc3cc2OC)C1 [Compound 4, 1-(3-(7-methoxy-4-(naphthalen-1-ylamino)quinazolin-6-yl)azetidin-1-yl)prop-2-en-1-one]
13 | ≤ 200 nM | 200 to 1000 nM | 200 to 1000 nM | 200 to 1000 nM | 200 to 1000 nM | ≤ 200 nM | C=CC(=O)N1CC(c2cc3c(Nc4ccc5ccccc5c4)ncnc3cc2OC)C1 [Compound 5, 1-(3-(7-methoxy-4-(naphthalen-2-ylamino)quinazolin-6-yl)azetidin-1-yl)prop-2-en-1-one]
14 | ≤ 200 nM | ≤ 200 nM | 200 to 1000 nM | 200 to 1000 nM | ≤ 200 nM | ≤ 200 nM | C=CC(=O)N1CC(c2cc3c(Nc4ccc(F)c(Cl)c4)ncnc3cc2OC)C1 [Compound 6, 1-(3-(4-((3-chloro-4-fluorophenyl)amino)-7-methoxyquinazolin-6-yl)azetidin-1-yl)prop-2-en-1-one]
15 | ≤ 200 nM | > 1000 nM | > 1000 nM | ≤ 200 nM | 200 to 1000 nM | 200 to 1000 nM | C=CC(=O)N1CC(c2cc3c(Nc4ccc(Cl)c5ccccc45)ncnc3cc2OC)C1 [Compound 7, 1-(3-(4-((4-chloronaphthalen-1-yl)amino)-7-methoxyquinazolin-6-yl)azetidin-1-yl)prop-2-en-1-one]
16 | ≤ 200 nM | 200 to 1000 nM | 200 to 1000 nM | > 1000 nM | ≤ 200 nM | ≤ 200 nM | C=CC(=O)N1CC(c2cc3c(Nc4ccc5[nH]ccc5c4)ncnc3cc2OC)C1 [Compound 11, 1-(3-(4-((1H-indol-5-yl)amino)-7-methoxyquinazolin-6-yl)azetidin-1-yl)prop-2-en-1-one]
17 | > 1000 nM | > 1000 nM | > 1000 nM | > 1000 nM | > 1000 nM | > 1000 nM | C=CC(=O)N1CC(c2cc3c(Nc4ccc5c(c4)CCN5)ncnc3cc2OC)C1 [Compound 12, 1-(3-(4-(indolin-5-ylamino)-7-methoxyquinazolin-6-yl)azetidin-1-yl)prop-2-en-1-one]
18 | ≤ 200 nM | > 1000 nM | > 1000 nM | > 1000 nM | 200 to 1000 nM | 200 to 1000 nM | C=CC(=O)N1CC(c2cc3c(NCc4ccc(F)cc4)ncnc3cc2OC)C1 [Compound 13, 1-(3-(4-((4-fluorobenzyl)amino)-7-methoxyquinazolin-6-yl)azetidin-1-yl)prop-2-en-1-one]
19 | ≤ 200 nM | > 1000 nM | > 1000 nM | ≤ 200 nM | ≤ 200 nM | ≤ 200 nM | C=CC(=O)N1CC(c2cc3c(Nc4ccc(F)c5ccccc45)ncnc3cc2OC)C1 [Compound 14, 1-(3-(4-((4-fluoronaphthalen-1-yl)amino)-7-methoxyquinazolin-6-yl)azetidin-1-yl)prop-2-en-1-one]
20 | ≤ 200 nM | > 1000 nM | 200 to 1000 nM | 200 to 1000 nM | 200 to 1000 nM | ≤ 200 nM | C=CC(=O)N1CC(c2cc3c(NCc4cccc(Cl)c4)ncnc3cc2OC)C1 [Compound 15, 1-(3-(4-((3-chlorobenzyl)amino)-7-methoxyquinazolin-6-yl)azetidin-1-yl)prop-2-en-1-one]
21 | ≤ 200 nM | ≤ 200 nM | ≤ 200 nM | ≤ 200 nM | ≤ 200 nM | ≤ 200 nM | C=CC(=O)N1CC(c2cc3c(Nc4ccc(F)c(Cl)c4F)ncnc3cc2OC)C1 [Compound 16, 1-(3-(4-((3-chloro-2,4-difluorophenyl)amino)-7-methoxyquinazolin-6-yl)azetidin-1-yl)prop-2-en-1-one]
